Test results as given in PubChem BioAssay (NCI).
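Each compound was tested at five concentrations against cells in 96-well plates for 48 hours. At the TGI there is no net growth.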

How the values were obtained:
Experiment in all cases: NCI tumour cell line growth inhibition, 48 h
[1] = tested on: OVCAR-3 ovarian
[2] = tested on: CCRF-CEM leukemia
[3] = tested on: UACC-257 melanoma
[4] = tested on: SF-539 CNS
[5] = tested on: OVCAR-5 ovarian
[6] = tested on: HCC-2998 colon
[7] = tested on: KM12 colon
[8] = tested on: MOLT-4 leukemia
[9] = tested on: 786-0 renal
[10] = tested on: HOP-92 NSCLC
[11] = tested on: RXF 393 renal
[12] = tested on: DU-145 prostate
[13] = tested on: MDA-MB-435
[14] = tested on: SK-MEL-28 melanoma
[15] = tested on: OVCAR-8 ovarian
[16] = tested on: NCI/ADR-RES ovarian
[17] = tested on: RPMI-8226 leukemia
[18] = tested on: SN12C renal
[19] = tested on: HCT-116 colon
[20] = tested on: LOX IMVI melanoma
[21] = tested on: MALME-3M melanoma
[22] = tested on: UACC-62 melanoma
[23] = tested on: A549 NSCLC
[24] = tested on: UO-31 renal
[25] = tested on: SR leukemia
[26] = tested on: MCF7 breast
[27] = tested on: HOP-62 NSCLC
[28] = tested on: OVCAR-4 ovarian
[29] = tested on: SK-OV-3 ovarian
[30] = tested on: SNB-75 CNS
[31] = tested on: COLO 205 colon
[32] = tested on: TK-10 renal
[33] = tested on: SW-620 colon
[34] = tested on: K-562 leukemia
[35] = tested on: PC-3 prostate
[36] = tested on: A498 renal
[37] = tested on: M14 melanoma
[38] = tested on: SF-295 CNS
[39] = tested on: MDA-MB-231 breast
[40] = tested on: SNB-19 CNS
[41] = tested on: HS 578T breast
[42] = tested on: NCI-H460 lung
[43] = tested on: NCI-H226 lung
[44] = tested on: HL-60(TB) leukemia
[45] = tested on: NCI-H522 lung
[46] = tested on: HT29 colon
[47] = tested on: ACHN renal
[48] = tested on: HCT-15 colon
[49] = tested on: BT-549 breast
[50] = tested on: CAKI-1 renal
[51] = tested on: SF-268 CNS
[52] = tested on: SK-MEL-2 melanoma
[53] = tested on: T-47D breast
[54] = tested on: NCI-H23 lung
[55] = tested on: EKVX NSCLC
[56] = tested on: SK-MEL-5 melanoma
[57] = tested on: U251 CNS
[58] = tested on: IGROV1 ovarian
[59] = tested on: MDA-N

Compound O=S(=O)(c1cc(Cl)ccc1Cl)n1ccnc1 has a TGI [1] of over 100 µM, a TGI [2] of over 100 µM and a TGI [3] of over 100 µM. For the same compound, the TGI [4] was 39.3 µM, the TGI [5] was over 100 µM and the TGI [6] was 42.4 µM. For the same compound, the TGI [7] was over 100 µM, the TGI [8] was over 100 µM and the TGI [9] was over 100 µM. For the same compound, the TGI [10] was over 100 µM, the TGI [11] was 74.1 µM and the TGI [12] was over 100 µM. It also gave a TGI [13] of 37 µM, a TGI [14] of over 100 µM and a TGI [15] of over 100 µM. For the same compound, the TGI [16] was 45.7 µM, the TGI [17] was 91.6 µM and the TGI [18] was 84.4 µM. For the same compound, the TGI [19] was over 100 µM, the TGI [20] was over 100 µM and the TGI [21] was over 100 µM. It also gave a TGI [22] of over 100 µM, a TGI [23] of over 100 µM and a TGI [24] of over 100 µM. For the same compound, the TGI [25] was 70.9 µM, the TGI [26] was over 100 µM and the TGI [27] was over 100 µM. For the same compound, the TGI [28] was over 100 µM, the TGI [29] was over 100 µM and the TGI [30] was over 100 µM. It also gave a TGI [31] of 34.1 µM, a TGI [32] of over 100 µM and a TGI [33] of over 100 µM. For the same compound, the TGI [34] was over 100 µM, the TGI [35] was over 100 µM and the TGI [36] was 95 µM. The TGI [37] was over 100 µM, the TGI [38] was over 100 µM and the TGI [39] was 51.2 µM. The TGI [40] was over 100 µM, the TGI [41] was over 100 µM and the TGI [42] was over 100 µM. For the same compound, the TGI [43] was 52.8 µM, the TGI [44] was 88 µM and the TGI [45] was over 100 µM. For the same compound, the TGI [46] was over 100 µM, the TGI [47] was over 100 µM and the TGI [48] was 89.5 µM. The TGI [49] was over 100 µM, the TGI [50] was over 100 µM and the TGI [51] was over 100 µM. For the same compound, the TGI [52] was over 100 µM, the TGI [53] was over 100 µM and the TGI [54] was 52.8 µM. For the same compound, the TGI [55] was over 100 µM, the TGI [56] was 53.9 µM and the TGI [57] was over 100 µM. For the same compound, the TGI [58] was over 100 µM.
CSC(SC)=C(C(=O)O)P(=O)(O)O was tested, and the TGI [1] was over 100 µM, the TGI [2] was over 100 µM and the TGI [3] was over 100 µM. For the same compound, the TGI [59] was over 100 µM, the TGI [4] was over 100 µM and the TGI [5] was over 100 µM. The TGI [6] was over 100 µM, the TGI [7] was over 100 µM and the TGI [8] was over 100 µM. The TGI [9] was over 100 µM, the TGI [10] was over 100 µM and the TGI [11] was over 100 µM. It also gave a TGI [12] of over 100 µM, a TGI [14] of over 100 µM and a TGI [15] of over 100 µM. It also gave a TGI [16] of over 100 µM, a TGI [18] of over 100 µM and a TGI [19] of over 100 µM. The TGI [20] was over 100 µM, the TGI [21] was over 100 µM and the TGI [22] was over 100 µM. For the same compound, the TGI [23] was over 100 µM, the TGI [25] was over 100 µM and the TGI [26] was over 100 µM. For the same compound, the TGI [27] was over 100 µM, the TGI [28] was over 100 µM and the TGI [29] was over 100 µM. It also gave a TGI [31] of over 100 µM, a TGI [32] of over 100 µM and a TGI [33] of over 100 µM. The TGI [35] was over 100 µM, the TGI [36] was over 100 µM and the TGI [37] was over 100 µM. It also gave a TGI [38] of over 100 µM, a TGI [39] of over 100 µM and a TGI [40] of over 100 µM. It also gave a TGI [41] of over 100 µM, a TGI [42] of over 100 µM and a TGI [43] of over 100 µM. The TGI [44] was over 100 µM, the TGI [45] was over 100 µM and the TGI [46] was over 100 µM. For the same compound, the TGI [47] was over 100 µM, the TGI [48] was over 100 µM and the TGI [50] was over 100 µM. It also gave a TGI [51] of over 100 µM, a TGI [52] of over 100 µM and a TGI [53] of over 100 µM. For the same compound, the TGI [54] was over 100 µM, the TGI [55] was over 100 µM and the TGI [56] was over 100 µM. The TGI [58] was over 100 µM.
Work on CCP(=O)(OC)C1=CCN(C(=O)OCC[Si](C)(C)C)CC1 (stereo not given) yielded a TGI [1] of over 100 µM, a TGI [2] of over 100 µM and a TGI [3] of over 100 µM. The TGI [59] was over 100 µM, the TGI [4] was over 100 µM and the TGI [5] was over 100 µM. It also gave a TGI [6] of over 100 µM, a TGI [7] of over 100 µM and a TGI [8] of over 100 µM. For the same compound, the TGI [9] was over 100 µM, the TGI [10] was over 100 µM and the TGI [11] was over 100 µM. The TGI [12] was over 100 µM, the TGI [13] was over 100 µM and the TGI [14] was over 100 µM. It also gave a TGI [15] of over 100 µM, a TGI [16] of over 100 µM and a TGI [17] of over 100 µM. The TGI [20] was over 100 µM, the TGI [21] was over 100 µM and the TGI [22] was over 100 µM. The TGI [23] was over 100 µM, the TGI [24] was over 100 µM and the TGI [26] was over 100 µM. The TGI [27] was over 100 µM, the TGI [28] was over 100 µM and the TGI [29] was over 100 µM. It also gave a TGI [30] of over 100 µM, a TGI [31] of over 100 µM and a TGI [32] of over 100 µM. It also gave a TGI [33] of over 100 µM, a TGI [34] of over 100 µM and a TGI [35] of over 100 µM. It also gave a TGI [36] of over 100 µM, a TGI [37] of over 100 µM and a TGI [38] of over 100 µM. It also gave a TGI [39] of over 100 µM, a TGI [40] of over 100 µM and a TGI [41] of over 100 µM. For the same compound, the TGI [42] was over 100 µM, the TGI [43] was over 100 µM and the TGI [44] was over 100 µM. It also gave a TGI [45] of over 100 µM, a TGI [46] of over 100 µM and a TGI [47] of over 100 µM. The TGI [48] was over 100 µM, the TGI [50] was over 100 µM and the TGI [51] was over 100 µM. For the same compound, the TGI [52] was over 100 µM, the TGI [53] was over 100 µM and the TGI [54] was over 100 µM. It also gave a TGI [55] of over 100 µM, a TGI [56] of over 100 µM and a TGI [57] of over 100 µM. It also gave a TGI [58] of over 100 µM.
